Values after ≈ are worked out from the molar mass of the structure shown. Each block holds one compound with its values, some of them ahead of it.
How the values were obtained:
[1] = tested on: Staphylococcus epidermidis IAM1296; test: in vitro antimicrobial activity test (MIC); type: cell-based
[2] = tested on: Staphylococcus aureus 209P; test: in vitro antimicrobial activity test (MIC); type: cell-based
[3] = tested on: Escherichia coli NIHJ JC-2; test: in vitro antimicrobial activity test (MIC); type: cell-based; conditions: NIHJJC2
[4] = tested on: Serratia marcescens X100; test: in vitro antimicrobial activity test (MIC); type: cell-based
[5] = tested on: Citrobacter freundii GN346; test: in vitro antimicrobial activity test (MIC); type: cell-based
[6] = oral absorbability test: urinary excretion in mice after oral administration; type: in vivo; conditions: mouse, urine, dose: 50 mg/kg, read-out: Urinary excretion rate in mice after oral administration
[7] = tested on: resistant bacteria which produce β-lactamase; conditions: background, cephem antibiotics for oral administration; cited from earlier work
[8] = tested on: bacteria; conditions: background, compared with commercially available cephem antibiotics; cited from earlier work

MIC [1]: 1.56 µg/mL (≈ 3.04 µM) | MIC [2]: 0.1 µg/mL (≈ 0.195 µM) | MIC [3]: 0.1 µg/mL (≈ 0.195 µM) | MIC [4]: 0.78 µg/mL (≈ 1.52 µM) | MIC [5]: 0.78 µg/mL (≈ 1.52 µM)
Compound: CO/N=C(\C(=O)NC1C(=O)N2C(C(=O)O)=C(CSc3nc(C)ns3)CSC12)c1cscn1 (stereo not drawn) [Example 1, 7-[(Z)-2-Methoxyimino-2-(thiazol-4-yl)acetamido]-3-(3-methyl-1 2,4-thiadiazol-5-yl)thiomethyl-3-cephem-4-carboxylic acid]

MIC [1]: 1.56 µg/mL (≈ 3.13 µM) | MIC [2]: 0.2 µg/mL (≈ 0.401 µM) | MIC [3]: 0.2 µg/mL (≈ 0.401 µM) | MIC [4]: 0.78 µg/mL (≈ 1.56 µM) | MIC [5]: 0.78 µg/mL (≈ 1.56 µM)
Compound: CO/N=C(\C(=O)NC1C(=O)N2C(C(=O)O)=C(CSc3ncns3)CS[C@H]12)c1cscn1 (stereo partly drawn) [Example 2, 7-[(Z)-2-Methoxyimino-2-(thiazol-4-yl)acetamido]-3-(1,2,4-thiadiazol-5-yl)thiomethyl-3-cephem-4-carboxylic acid]

dose excreted [6]: 32%
Compound: CCOC(=O)OC(C)OC(=O)C1=C(CSc2nc(C)ns2)CS[C@@H]2C(NC(=O)/C(=N\OC)c3cscn3)C(=O)N12 (stereo partly drawn) [Example 6, 1-Ethoxycarbonyloxyethyl 7-[(Z)-2-methoxyimino-2-(thiazol-4-yl)acetamido]-3-(3-methyl-1,2,4-thiadiazol-5-yl)thiomethyl-3-cephem-4-carboxylate]

dose excreted [6]: 32%
Compound: CO/N=C(\C(=O)NC1C(=O)N2C(C(=O)OCc3oc(=O)oc3C)=C(CSc3ncns3)CS[C@H]12)c1cscn1 (stereo partly drawn) [Example 15, (5-Methyl-2-oxo-1,3-dioxolen-4-yl)methyl-7-[(Z)-2-methoxyimino-2-(thiazol-4-yl)acetamido]-3-(1,2,4-thiadiazol-5-yl)thiomethyl-3-cephem-4-carboxylate]

Compound: N[C@@H](C(=O)N[C@@H]1C(=O)N2C(C(=O)O)=C(Cl)CS[C@H]12)c1ccccc1 [cefaclor]
activity on resistant bacteria which produce β-lactamase [7]: ineffective | antimicrobial activity and width of the antimicrobial spectrum [8]: slightly inferior

Compound: N[C@@H](C(=O)N[C@@H]1C(=O)N2C(C(=O)O)=C(CSc3c[nH]nn3)CS[C@H]12)c1ccc(O)cc1 [cefatrizine]
activity on resistant bacteria which produce β-lactamase [7]: ineffective | antimicrobial activity and width of the antimicrobial spectrum [8]: slightly inferior

Compound: CC1=C(C(=O)O)N2C(=O)[C@@H](NC(=O)[C@H](N)c3ccccc3)[C@H]2SC1 [cephalexin]
activity on resistant bacteria which produce β-lactamase [7]: ineffective | antimicrobial activity and width of the antimicrobial spectrum [8]: slightly inferior

Source: patent US4761409A, “Cephem derivatives” (Sumitomo Pharmaceuticals Company, Limited, priority 1984, dated 1988)
